# Test results published in patent US20240197738A1, “COMPOUND 7AI IN TREATING EWING SARCOMA BY INHIBITING OTUD7A” (The University of North Carolina at Chapel Hill, priority 2021, published 2024).
# Where a SMILES comes first, the peptide text is derived from it. The star is where a group is joined. Cbz = O=C(OCc1ccccc1)*
# Tests used:
# Assay type in all cases: cell-based, human
# [1] = test system: EWS-FLI1; assay: Immunoblot of EWS-FLI1 protein abundance in cells; conditions: for SPOP-mediated decrease of ectopically expressed EWS-FLI1: HEK293T cells, 10 μM MG132 or 1 μM MLN4924 overnight (FIG. 1G)
# [2] = test system: SPOP; assay: Immunoblot of SPOP levels; conditions: D4476 treatment
# Protocol: (§1) Cells were lysed in EBC buffer (50 mM Tris pH 7.5, 120 mM NaCl, 0.5% NP-40) or Triton X-100 buffer (50 mM Tris pH 7.5, 150 mM NaCl, 1% Triton X-100) supplemented with protease inhibitors (Complete Mini, Roche) and phosphatase inhibitors (phosphatase inhibitor cocktail set I and II, Calbiochem). The protein concentrations of whole cell lysates were measured by NanoDrop OneC using the Bio-Rad protein assay reagent as described previously. Equal amounts of whole cell lysates were resolved by SDS-PAGE and immunoblotted with indicated antibodies. For immunoprecipitations analysis, unless specified, 1000 μg lysates were incubated with the indicated antibody (1-2 μg) for 3-4 hr at 4° C. followed by 1 hr incubation with 10 μL Protein A magnetic beads (New England Biolabs). Or 1000 μg lysates containing tagged molecules were incubated with agarose beads coupled antibodies for the specific tag for 3-4 hr at 4° C. For endogenous IPs, incubation of cell lysates with antibodies was extended to overnight. The recovered immuno-complexes were washed five times with NETN buffer (20 mM Tris, pH 8.0, 100 mM NaCl, 1 mM EDTA and 0.5% NP-40) before being resolved by SDS-PAGE and immunoblotted with indicated antibodies.
# [3] = test system: EWS-FLI1 binding to SPOP; assay: EWS-FLI1 binding to SPOP in cells; conditions: D4476 treatment
# Protocol: as §1
# [4] = test system: EWS-FLI1 mRNA; assay: RT-PCR of EWS-FLI1 mRNA levels
# Protocol: Cells were isolated by dissociation with 0.05% Trypsin, followed by media quenching. The cells were spun down at 300×rcf for 5 minutes. The media was aspirated, the pellet was suspended with 1×PBS, and then the cells were spun down again. The PBS was aspirated. RNA extraction was performed with an RNA extraction kit (BioBasic BS584). The final elution step was done with 50 μL of RNAse-free water. The […] with the NanoDrop OneC (Thermo Fisher Scientific). Three biological replicates were performed for RNA extraction. Quartile analysis was done to exclude outliers and significance was determined by one-way ANOVA tests.
smiles,measurement,setting,value
NC(=O)c1ccc(-c2nc(-c3ccc4c(c3)OCCO4)c(-c3ccccn3)[nH]2)cc1 [D4476],EWS-FLI1 protein levels,"[1]; A673^3A KI cells, D4476 for 16 hrs (FIG. 2P)",not observed
same,EWS-FLI1 protein levels,"[1]; A673 parental cells, D4476 for 16 hrs (FIG. 2O)",Increased EWS-FLI1 protein levels
same,EWS-FLI1 protein abundance,"[1]; EWS502 cells (CUL3 E358Q), D4476 treatment","neither D4476 treatment, nor SPOP depletion increased EWS-FLI1 protein abundance"
same,EWS-FLI1 protein accumulation,"[1]; SK-N-MC, EWS894 and MHH-ES-1 cells, D4476 for 16 hrs (FIGS. 2B-2D)",resulted in the accumulation of EWS-FLI1 in multiple Ewing sarcoma cells
same,effect on EWS-FLI1 levels in SPOP-depleted cells,"[1]; endogenous SPOP-depleted A673 cells, D4476 for 16 hrs (FIG. 2H)",attenuated
same,SPOP levels,[2],unaffected
same,EWS-FLI1 binding to SPOP,[3],reduced EWS-FLI1 binding to SPOP
same,EWS-FLI1 mRNA levels,[4]; D4476 treatment,without significantly affecting EWS-FLI1 mRNA levels
Cc1sc2c(c1C)C(c1ccc(Cl)cc1)=N[C@@H](CC(=O)OC(C)(C)C)c1nnc(C)n1-2 [JQ1],EWS-FLI1 protein abundance,"[1]; MHH-ES-1 or A673 cells, JQ1 treatment",didn't change EWS-FLI1 protein abundance
CC(C)C[C@@H](C=O)NC(=O)[C@H](CC(C)C)NC(=O)[C@H](CC(C)C)NC(=O)OCc1ccccc1 [MG132] (Cbz-Leu-Leu-Leu-aldehyde),3A-EWS-FLI1 mutant protein response,"[1]; 3A-EWS-FLI1 (S464A/S465A/S466A), MG132 treatment",resistance to MG132 treatment
same,EWS-FLI1 protein abundance,"[1]; A673 and SK-N-MC cells, 10 μM MG132 for 4 hrs",significantly increased EWS-FLI1 protein abundance
same,SPOP-mediated decrease of ectopically expressed EWS-FLI1,[1],blocked
same,EWS-FLI1 protein levels following OTUD7A depletion,"[1]; tet-induced OTUD7A depletion, MG132 treatment",largely preserved EWS-FLI1 protein levels
NS(=O)(=O)OC[C@@H]1C[C@@H](n2ccc3c(N[C@H]4CCc5ccccc54)ncnc32)C[C@@H]1O [MLN4924],EWS-FLI1 protein stabilization,"[1]; A673 cells, 1 μM MLN4924 overnight",largely stabilized EWS-FLI1
same,SPOP-mediated decrease of ectopically expressed EWS-FLI1,[1],blocked
Nc1cccc2c1CN(C1CCC(=O)NC1=O)C2=O (centres unmarked) [lenalidomide],EWS-FLI1 protein abundance,"[1]; MHH-ES-1 cells, lenalidomide for 16 hrs (FIG. 2I)",increased EWS-FLI1 protein abundance
same,EWS-FLI1 mRNA levels,[4]; lenalidomide treatment,without affecting EWS-FLI1 mRNA levels
